Results on three compounds are retold here after US7494669B2, “Delivery of physiological agents with in-situ gels comprising anionic polysaccharides” (priority 2001, dated 2009).

Like-named read-outs stand apart in the source and are kept apart here.

A short description of series [1]: Gelation of HMW Aloe pectin solution on mixing with divalent cation salts. Type of series: physicochemical. On the set-up: key: + indicates whole gel formation; ± partial gel formation; − no gel formation and solution remains clear and homogenous. As to the method:
A 0.6% (w/v) HMW Aloe pectin solution in water was mixed with calcium chloride dihydrate solutions at various concentrations, at an 1:1 ratio (1 ml to 1 ml) to achieve a final polymer concentration of 0.3% (w/v) and a final calcium chloride dihydrate concentration from 0.0019-0.5% (w/v). The mixtures were immediately vortexed together, then the tubes were kept at room temperature and observed over time.

The test system of series [2] is cells surrounding the gel. The series is described as follows: Local delivery of bFGF by Aloe pectin in-situ gel. Type of series: in vivo, mice. The text has this: For growth factors to exert local effect on tissues surrounding the administration site, they need to be delivered in a matrix to allow them to be released in a slow or sustained manner. A delivery in saline or buffer alone is not effective in this regard. In this example, a growth factor (bFGF) was used. bFGF (basic fibroblast growth factor or FGF-2) is a growth factor known to stimulate fibroblast proliferation and angiogenesis or blood vessel formation. It was mixed with Aloe pectin (0.5%, w/v) in physiological saline at a concentration of 1-10 μg/ml and then injected subcutaneously into the lower left or right side of abdominal region of mice. One side received the control (pectin alone), and the other side received the bFGF-containing preparation. The in-situ gels from two mice were harvested along with skin at days 5-10 and subjected to fixation in formalin, sectioning, and H&E staining. Two identical areas, at either end of the gel, vertically between the gel surface and the skin muscle layer and horizontally 510 μm inward from the lateral end of the gel were selected, and the cells in these two selected areas from each gel were numerated using the NIH image software.

A short description of series [3]: Gel frontal migration assay with serum. Type of series: physicochemical. The conditions noted are these: 3 mg/ml pectin with 0.0039% or 0.0078% calcium chloride on normal calf serum. The source says:
Body fluids such as blood, lacrimal fluid, lung fluid and nasal secretions contain calcium ions ([…] in blood, for example). Since Aloe pectin forms calcium gel, the role of calcium in the in-situ gelation of Aloe pectin was examined using an in vitro gelling assay with animal serum that simulates in-situ gel formation. This in vitro assay is described as a gel frontal migration assay. Animal serum was placed at the bottom of a glass tube and the Aloe pectin solution was layered on top of the serum (the pectin solution may also be placed at the bottom of the tube dependent on the density of the test solution in relation to the pectin solution). Tissue culture grade normal calf serum was used. […]
Gel formation was immediate at the contact line (interface of the solutions) and the gel phase or gel front gradually extended upward in the pectin solution over time. […] The thickness of the gel formed at the interface can be measured over time (such measurements are referred to as “gel length” hereinbelow).
The gel frontal migration assay described above was used. […] After 18 hrs at room temperature, the length of gels formed (i.e. gel thickness) was measured. […]
The gel frontal migration assay described above was used. […] The length of gels formed was measured 18 hrs later. […]

[4] abbreviates: 0.3% (w/v) HMW Aloe pectin, salt 0 % w/v final.
[5] abbreviates: 0.3% (w/v) HMW Aloe pectin, salt 0.0019 % w/v final.
The mark [6] stands for this setting: 0.3% (w/v) HMW Aloe pectin, salt 0.0039 % w/v final.
The mark [7] stands for this setting: 0.3% (w/v) HMW Aloe pectin, salt 0.0156 % w/v final.
Setting [8] is: 0.3% (w/v) HMW Aloe pectin, salt 0.0313 % w/v final.
Where [9] appears, read: 0.3% (w/v) HMW Aloe pectin, salt 0.0625 % w/v final.
[10] abbreviates: 0.3% (w/v) HMW Aloe pectin, salt 0.125 % w/v final.
[11] abbreviates: 0.3% (w/v) HMW Aloe pectin, salt 0.25 % w/v final.
Where [12] appears, read: 0.3% (w/v) HMW Aloe pectin, salt 0.5 % w/v final.

Regarding `[Cl-].[Cl-].[Zn+2]` [ZnCl2, zinc chloride], the “Gel formation on mixing with HMW Aloe pectin” value (“Gel formation on mixing” below) in series [1] (setting [4]) is listed as “−”; in series [1] (setting [5]), “−”; in series [1] (setting [6]) it was “−”; in series [1] (0.3% (w/v) HMW Aloe pectin, salt 0.0078 % w/v final), “−”; in series [1] (setting [7]) it was “±”; in series [1] (setting [8]) it was “+”. For the same compound, the “Gel formation on mixing” value in series [1] (setting [9]), in series [1] (setting [10]), in series [1] (setting [11]) and in series [1] (setting [12]) was “+” throughout.

For “bFGF: basic fibroblast growth factor (FGF-2), delivered in 0.5% Aloe pectin in physiological saline”, the “Blood vessel formation surrounding the gel” value in series [2] (bFGF 10 μg/ml) is recorded as “increase in blood vessel formation”. Moreover, in series [2] (bFGF 1-10 μg/ml in 0.5% Aloe pectin, subcutaneous, days 5-10), the “Cell number in bFGF-treated relative to the control (pectin alone)” value is “more than 2 times”.

Consider `O.O.[Ca+2].[Cl-].[Cl-]` [CaCl2•2H2O, calcium chloride dihydrate], for which the “Gel formation on mixing” value in series [1] is “−”; in series [1] (setting [4]) it was “−”; in series [1] (setting [5]), “−”; in series [1] (setting [6]) it was “−”; in series [1] (setting [7]) it was “±”; in series [1] (setting [8]), “+”. Also, the “Gel formation on mixing” value in series [1] (setting [9]), in series [1] (setting [10]), in series [1] (setting [11]) and in series [1] (setting [12]) was “+” throughout. In addition, the “Gel formation versus control without added calcium chloride” value in series [3] is listed as “gel formation increased”.
